Here are results for eleven molecules from patent US20250313572A1, “MACROCYCLIC MCL-1 INHIBITORS AND METHODS OF USE” (AbbVie Inc., priority 2017, published 2025).

Broadly, the Ki is the dissociation constant of the complex between target and ligand, obtained from inhibition or displacement. As a reminder, the IC50 is the midpoint of a concentration-inhibition curve.

The target of assay [1] is GST-MCL-1 (Homo sapiens, UniProt Q07820). In words: TR-FRET MCL-1 binding assay (competition with probe F-Bak). The procedure, abridged: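 Displacement of F-Bak from GST-MCL-1 is detected by time-resolved FRET with a Tb-labelled anti-GST antibody, with excitation 340/35 nm and emission 520/525 and 495/510 nm, after 2 hours at room temperature. Compounds were titrated in 11 three-fold steps starting at 25 μM final, in buffer alone or in 10% HS.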
A general note: In TR-FRET formats the signal depends on donor and acceptor labels being close together.

Assay [2] has as its system AMO-1 human multiple myeloma tumor cell line. In words: AMO-1 cell viability assay (CellTiter-Glo, 24 hours). In kind it is cell-based. The following applies: Homo sapiens, AMO1, 24 h, read-out: AMO-1 Viability IC50 (μM, 10% FBS), 10% FBS, 24 hours of compound treatment. (Cellular ATP, detected with luciferase, serves as a proxy for viable cell number.)
For assay [3], the system named is NCI-H929 human multiple myeloma tumor cell line. Nature of the assay: NCI-H929 cell viability assay (CellTiter-Glo, 24 hours). The format is cell-based. The note with it: Homo sapiens, NCI-H929, 24 h, read-out: H929 Viability IC50 (μM, 10% FBS), 10% FBS, 24 hours of compound treatment.
Where [4] appears, read: MCL-1 Binding Ki (nM, 10% HS), in the presence of 10% HS (human serum).
The mark [5] stands for this setting: without HS, read-out: MCL-1 Binding Ki.

Where two headings read alike, the source gives them in different places.

Chain of GST-MCL-1 (Q07820 whole entry): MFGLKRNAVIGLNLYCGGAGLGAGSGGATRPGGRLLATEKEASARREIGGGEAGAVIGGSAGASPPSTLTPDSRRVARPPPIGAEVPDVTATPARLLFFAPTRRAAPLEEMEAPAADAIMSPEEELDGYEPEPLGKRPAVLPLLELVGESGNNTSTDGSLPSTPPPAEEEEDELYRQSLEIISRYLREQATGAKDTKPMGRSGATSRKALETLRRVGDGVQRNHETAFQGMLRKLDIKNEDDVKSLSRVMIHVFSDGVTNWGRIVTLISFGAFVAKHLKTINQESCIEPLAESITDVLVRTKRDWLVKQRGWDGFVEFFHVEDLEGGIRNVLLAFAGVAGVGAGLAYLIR

For the molecule `Cc1c(Cl)c2c(Cl)c(C)c1-c1c(-c3ccc(F)cc3)sc3ncnc(c13)O[C@@H](C(=O)O)Cc1cc(ccc1OCc1ccnc(C3CCS(=O)(=O)C3)n1)OC[C@@H](CN1CCN(C)CC1)O2` (stereo partly drawn) [Example 73, (7R,16R)-19,23-dichloro-10-{[2-(1,1-dioxo-1λ^6-thiolan-3-yl)pyrimidin-4-yl]methoxy}-1-(4-fluorophenyl)-20,22-dimethyl-16-[(4-methylpiperazin-1-yl)methyl]-7,8,15,16-tetrahydro-18,21-etheno-9,13-(metheno)-6,14,17-trioxa-2-thia-3,5-diazacyclononadeca[1,2,3-cd]indene-7-carboxylic Acid], the Ki in assay [1] (setting [4]) is 0.208 nM; in assay [1] (setting [5]), 0.037 nM. Moreover, the IC50 is 0.00262 µM in assay [2] and 0.00556 µM in assay [3].
Regarding `COCCOCCOCCOCCOCCOCCOC1(c2nccc(COc3ccc4cc3C[C@H](C(=O)O)Oc3ncnc5sc(-c6ccc(F)cc6)c(c35)-c3c(C)c(Cl)c(c(Cl)c3C)O[C@H](CN3CCN(C)CC3)CO4)n2)CCCC1` [Example 74, (7R,16R)-19,23-dichloro-1-(4-fluorophenyl)-10-[(2-{1-[(2,5,8,11,14,17-hexaoxanonadecan-19-yl)oxy]cyclopentyl}pyrimidin-4-yl)methoxy]-20,22-dimethyl-16-[(4-methylpiperazin-1-yl)methyl]-7,8,15,16-tetrahydro-18,21-etheno-9,13-(metheno)-6,14,17-trioxa-2-thia-3,5-diazacyclononadeca[1,2,3-cd]indene-7-carboxylic Acid], the results for the Ki in assay [1] (setting [4]) and in assay [1] (setting [5]) were 0.12 nM and 0.083 nM, respectively. Further, the 50% inhibitory concentration (IC50) in assay [2] amounted to 0.00153 µM; in assay [3], 0.00237 µM.
Regarding `Cc1c(Cl)c2c(Cl)c(C)c1-c1c(-c3ccc(F)cc3)sc3ncnc(c13)O[C@@H](C(=O)O)Cc1cc(ccc1OCc1ccnc(N3CCS(=O)(=O)CC3)n1)OC[C@@H](CN1CCN(C)CC1)O2` [Example 75, (7R,16R)-19,23-dichloro-10-{[2-(1,1-dioxo-1λ^6-thiomorpholin-4-yl)pyrimidin-4-yl]methoxy}-1-(4-fluorophenyl)-20,22-dimethyl-16-[(4-methylpiperazin-1-yl)methyl]-7,8,15,16-tetrahydro-18,21-etheno-9,13-(metheno)-6,14,17-trioxa-2-thia-3,5-diazacyclononadeca[1,2,3-cd]indene-7-carboxylic Acid], the Ki worked out at 2.67 nM in assay [1] (setting [4]) and 0.375 nM in assay [1] (setting [5]). The IC50 turned out to be 0.00386 µM in assay [2] and 0.00914 µM in assay [3].
The corresponding values for `COCCOCCOCCOCCOCCOCC1(c2nccc(COc3ccc4cc3C[C@H](C(=O)O)Oc3ncnc5sc(-c6ccc(F)cc6)c(c35)-c3c(C)c(Cl)c(c(Cl)c3C)O[C@H](CN3CCN(C)CC3)CO4)n2)CCCC1` [Example 76, (7R,16R)-19,23-dichloro-1-(4-fluorophenyl)-10-({2-[1-(2,5,8,11,14,17-hexaoxaoctadecan-1-yl)cyclopentyl]pyrimidin-4-yl}methoxy)-20,22-dimethyl-16-[(4-methylpiperazin-1-yl)methyl]-7,8,15,16-tetrahydro-18,21-etheno-13,9-(metheno)-6,14,17-trioxa-2-thia-3,5-diazacyclononadeca[1,2,3-cd]indene-7-carboxylic Acid] are 0.634 nM, 0.16 nM, 0.000409 µM and 0.000648 µM.
As for `Cc1c(Cl)c2c(Cl)c(C)c1-c1c(-c3ccc(F)cc3)sc3ncnc(c13)O[C@@H](C(=O)O)Cc1cc(ccc1OCc1ccnc(C3(COCCOC[C@H]4COCCO4)CCC3)n1)OC[C@@H](CN1CCN(C)CC1)O2` [Example 77, (7R,16R)-19,23-dichloro-10-[(2-{1-[(2-{[(2R)-1,4-dioxan-2-yl]methoxy}ethoxy)methyl]cyclobutyl}pyrimidin-4-yl)methoxy]-1-(4-fluorophenyl)-20,22-dimethyl-16-[(4-methylpiperazin-1-yl)methyl]-7,8,15,16-tetrahydro-18,21-etheno-13,9-(metheno)-6,14,17-trioxa-2-thia-3,5-diazacyclononadeca[1,2,3-cd]indene-7-carboxylic Acid], the inhibitory constant (Ki) in assay [1] (setting [4]) was 0.325 nM; in assay [1] (setting [5]) it was 0.089 nM. Also, the half-maximal inhibitory concentration (IC50) worked out at 0.000193 µM in assay [2] and 0.000405 µM in assay [3].
In the same order, the values of `Cc1c2ccc(c1Cl)O[C@H](CN1CCN(C)CC1)COc1ccc(OCc3ccnc(N4CCC5(CC4)CC(F)(F)CO5)n3)c(c1)C[C@H](C(=O)O)Oc1ncnc3sc(-c4ccc(F)cc4)c-2c13` [Example 78, (7R,16R)-19-chloro-10-{[2-(3,3-difluoro-1-oxa-8-azaspiro[4.5]decan-8-yl)pyrimidin-4-yl]methoxy}-1-(4-fluorophenyl)-20-methyl-16-[(4-methylpiperazin-1-yl)methyl]-7,8,15,16-tetrahydro-18,21-etheno-13,9-(metheno)-6,14,17-trioxa-2-thia-3,5-diazacyclononadeca[1,2,3-cd]indene-7-carboxylic Acid] are 16 nM, 2.28 nM, 0.000935 µM and 0.00552 µM.
The corresponding values for `COC1CC2(C1)CN(c1nccc(COc3ccc4cc3C[C@H](C(=O)O)Oc3ncnc5sc(-c6ccc(F)cc6)c(c35)-c3c(C)c(Cl)c(c(Cl)c3C)O[C@H](CN3CCN(C)CC3)CO4)n1)C2` [Example 79, (7R,16R)-19,23-dichloro-1-(4-fluorophenyl)-10-{[2-(6-methoxy-2-azaspiro[3,3]heptan-2-yl)pyrimidin-4-yl]methoxy}-20,22-dimethyl-16-[(4-methylpiperazin-1-yl)methyl]-7,8,15,16-tetrahydro-18,21-etheno-9,13-(metheno)-6,14,17-trioxa-2-thia-3,5-diazacyclononadeca[1,2,3-cd]indene-7-carboxylic Acid] are 1 nM, 0.088 nM, 0.000418 µM and 0.00163 µM.
The corresponding values for `Cc1c(Cl)c2c(Cl)c(C)c1-c1c(-c3ccc(F)cc3)sc3ncnc(c13)O[C@@H](C(=O)O)Cc1cc(ccc1OCc1ccnc(C(C)(C)COCCOC[C@H]3COCCO3)n1)OC[C@@H](CN1CCN(C)CC1)O2` [Example 80, (7R,16R)-19,23-dichloro-10-({2-[1-(2-{[(2R)-1,4-dioxan-2-yl]methoxy}ethoxy)-2-methylpropan-2-yl]pyrimidin-4-yl}methoxy)-1-(4-fluorophenyl)-20,22-dimethyl-16-[(4-methylpiperazin-1-yl)methyl]-7,8,15,16-tetrahydro-18,21-etheno-13,9-(metheno)-6,14,17-trioxa-2-thia-3,5-diazacyclononadeca[1,2,3-cd]indene-7-carboxylic Acid] are 0.797 nM, 0.107 nM, 0.000189 µM and 0.000954 µM.
In the case of `COCCOCCOCCOCCOCCO[C@H]1CC[C@@H](c2nccc(COc3ccc4cc3C[C@H](C(=O)O)Oc3ncnc5sc(-c6ccc(F)cc6)c(c35)-c3c(C)c(Cl)c(c(Cl)c3C)O[C@H](CN3CCN(C)CC3)CO4)n2)CC1` [Example 82, (7R,16R)-19,23-dichloro-1-(4-fluorophenyl)-20,22-dimethyl-16-[(4-methylpiperazin-1-yl)methyl]-10-[(2-{(1s,4s)-4-[(2,5,8,11,14-pentaoxahexadecan-16-yl)oxy]cyclohexyl}pyrimidin-4-yl)methoxy]-7,8,15,16-tetrahydro-18,21-etheno-13,9-(metheno)-6,14,17-trioxa-2-thia-3,5-diazacyclononadeca[1,2,3-cd]indene-7-carboxylic Acid], the results for the inhibition constant Ki in assay [1] (setting [4]) and in assay [1] (setting [5]) were 0.135 nM and 0.014 nM, respectively. Moreover, the results for the IC50 in assay [2] and in assay [3] were 0.000563 µM and 0.00109 µM, respectively.
As to `COCCOCCOCCOCCOCCOCC1(c2nccc(COc3ccc4cc3C[C@H](C(=O)O)Oc3ncnc5sc(-c6ccc(F)cc6)c(c35)-c3c(C)c(Cl)c(c(Cl)c3C)O[C@H](CN3CCN(C)CC3)CO4)n2)CCCCC1` [Example 88, (7R,16R)-19,23-dichloro-1-(4-fluorophenyl)-10-({2-[1-(2,5,8,11,14,17-hexaoxaoctadecan-1-yl)cyclohexyl]pyrimidin-4-yl}methoxy)-20,22-dimethyl-16-[(4-methylpiperazin-1-yl)methyl]-7,8,15,16-tetrahydro-18,21-etheno-13,9-(metheno)-6,14,17-trioxa-2-thia-3,5-diazacyclononadeca[1,2,3-cd]indene-7-carboxylic Acid], the Ki is 0.143 nM in assay [1] (setting [4]) and 0.033 nM in assay [1] (setting [5]). Besides, the half-maximal inhibitory concentration (IC50) was 0.00117 µM in assay [2] and 0.00206 µM in assay [3].
In the same order, the values of `COCCOCCOCCOCCOc1nccc(COc2ccc3cc2C[C@H](C(=O)O)Oc2ncnc4sc(-c5ccc(F)cc5)c(c24)-c2c(C)c(Cl)c(c(Cl)c2C)O[C@H](CN2CCN(C)CC2)CO3)n1` [Example 89, (7R,16R)-19,23-dichloro-1-(4-fluorophenyl)-20,22-dimethyl-16-[(4-methylpiperazin-1-yl)methyl]-10-({2-[(2,5,8,11-tetraoxatridecan-13-yl)oxy]pyrimidin-4-yl}methoxy)-7,8,15,16-tetrahydro-18,21-etheno-13,9-(metheno)-6,14,17-trioxa-2-thia-3,5-diazacyclononadeca[1,2,3-cd]indene-7-carboxylic Acid] are 0.485 nM, 0.067 nM, 0.00262 µM and 0.00299 µM.
